The record followed here is article PMC10854695, “Using Flavonoid Substitution Status to Predict Anticancer Effects in Human Melanoma Cancers: An In Vitro Study” (Cancers, 2024).

Series [1] deals with human skin fibroblasts (CCD25Sk). The series can be described thus: Neutral red uptake (NRU) assay, normal cells. The note with it: read-out: IC50, cytotoxic activity, NRU assay; Normal cells (fibroblasts), 48 h.
Series [2] has as its system C32 melanoma cells. Put plainly: [3H]-thymidine incorporation (DNA biosynthesis), C32. It counts as cell-based, human. The following applies: read-out: IC50, effect on DNA biosynthesis ([3H]-thymidine incorporation).
Protocol: (§1) The inhibition of DNA biosynthesis was evaluated using [^3H]-thymidine incorporation into the DNA of melanoma cells (C32, A375) and fibroblasts treated with the studied compounds [21]. The cells were briefly seeded in 24-well plates (1 × 10^5 cells per well) and allowed to adhere for 24 h. […] After incubation for 24, 48, and 72 h, the cells were rinsed three times with PBS. Then, cells were lysed in 1 mL of 0.1 M NaOH containing 1% SDS. The cell lysate was moved into scintillation vials containing scintillation liquid, and the radioactivity of the samples was measured using a liquid scintillation analyzer (Perkin-Elmer, Waltham, MA, USA).
The subject of series [3] is C32 melanoma cells. Put plainly: Neutral red uptake (NRU) assay, C32.
Series [4] deals with human skin fibroblasts (CCD25Sk). The series can be described thus: [3H]-thymidine incorporation (DNA biosynthesis), normal cells. The series is classed as cell-based. The note with it: read-out: IC50, effect on DNA biosynthesis ([3H]-thymidine incorporation).
Protocol: as §1
In series [5] the test system is caspases, PARP, phospho-RSK in A375 cells. The series can be described thus: Western immunoblot of apoptosis mediators and RSK, A375. It counts as cell-based, human. The note with it: A375, 48 h, Western blot. A general note: A western blot detects proteins with antibodies after separation by electrophoresis.
Protocol: (§2) Floating cells were harvested by centrifugation of the conditioned media (300× g, 5 min). Cell pellet and adherent cells were lysed in a cell lysis buffer supplemented with inhibitors of proteases and phosphatases. The cell lysate was sonicated (2 × 10 s) on ice with an ultrasonic homogenizer (UP200S, Hielscher Ultrasonics GmbH, Teltow, Germany) and centrifuged for 10 min at 10,000× g. The supernatant was collected and stored in a freezer at −70 °C. Protein concentrations in the cell supernatants were determined using a Lowry assay. Obtained proteins were dissolved on SDS-PAGE gels (7.5%, 10%, or 12%) using the Mini-Protean Tetra system. The proteins were transferred to nitrocellulose membranes using the Mini Trans-Blot Cell wet blotting system. The 5% skim milk was used to block membranes. Then, membranes were probed for 24 h at 4 °C with the following antibodies: anti-phospho-RSK, anti-RSK, anti-PARP, anti-cleaved PARP, anti-caspase-8, anti-caspase-9, anti-caspase-7, anti-caspase-3, and anti-actin. Membranes were incubated with an ECL-HRP (enhanced chemiluminescence-horseradish peroxidase) substrate, and the signal was spotted using the BioSpectrum Imaging System and VisionWorks LS software 7.0 (Ultra-Violet Products, Ltd., San Gabriel, CA, USA). The intensity of the bands was quantified by densitometric analysis using UVIBand software, version 15.08d (Uvitec Ltd., Cambridge, UK).
Series [6] deals with caspases, PARP, phospho-RSK in C32 cells. The series can be described thus: Western immunoblot of apoptosis mediators and RSK, C32. The series is classed as cell-based, human. The note with it: C32, 48 h, Western blot.
Protocol: as §2
Series [7] deals with A375 melanoma cells. The series can be described thus: Neutral red uptake (NRU) assay, A375. The following applies: read-out: IC50, cytotoxic activity, NRU assay.
Series [8] has as its system A375 melanoma cells. Put plainly: [3H]-thymidine incorporation (DNA biosynthesis), A375. It counts as cell-based, human. The following applies: read-out: IC50, effect on DNA biosynthesis ([3H]-thymidine incorporation).
Protocol: as §1
Series [9] can be described thus: Neutral red uptake (NRU) assay, normal cells. The following applies: human.
Series [10] has as its system A375 melanoma cells. Put plainly: MTT cell viability assay, A375.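 Further: Read-out is formazan absorbance at 570 nm after 2 h with MTT, with compounds in at most 0.1% v/v DMSO.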 The following applies: Homo sapiens. (In general: Formazan colour is commonly taken as a measure of viable cells.)
In series [11] the test system is A375 melanoma cells. The series can be described thus: Apoptosis assay, annexin V/PI flow cytometry, A375. The note with it: A375, 50 µM, 48 h. It counts as cell-based, human. (In general: Flow cytometry measures light scatter and fluorescence of single cells or particles in a stream.)
Protocol: Firstly, cells were placed in 6-well plates at a density of 1 × 10^5 cells per well and allowed to adhere for 24 h. Then, cells were treated with 25 µM, 50 µM, and 100 μM of the selected flavonoids (1, 6, 15, 16, 17, 37) and incubated for 48 h. Floating and adherent cells were collected and assayed using the manufacturer’s protocol supported by the Dead Cell Apoptosis Kit for flow cytometry. Concisely, 100 μL of an annexin-binding buffer containing a 5 μL annexin V-FITC conjugate solution and 1 μg/mL PI (propidium iodide) was used to disperse the cells. After 15 min of incubation, an additional 400 μL of the mentioned buffer was added. The cells were analyzed with a DxFLEX flow cytometer (Beckman Coulter, Brea, CA, USA).
Series [12] deals with C32 melanoma cells. Put plainly: MTT cell viability assay, C32.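 Further: MTT added for 2 h, cells lysed in DMSO, absorbance read at 570 nm, compound vehicle kept at or below 0.1% DMSO.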 The note with it: Homo sapiens, read-out: IC50, cytotoxic activity, MTT test.
The subject of series [13] is cleaved caspase-3 and cleaved caspase-7 in C32 cells. Put plainly: Immunofluorescence of cleaved caspase-3/-7, C32. It counts as cell-based, human. The note with it: C32, 48 h, immunofluorescent staining.
Protocol: Firstly, to examine fluorescent signals, cells were placed in the bottom of 96-well black plates at 1 × 10^4 cells per well and permitted to adhere for 24 h. […] After incubating and removing the medium, cells were fixed in 4% paraformaldehyde for 15 min. Later, cells were rinsed three times with PBS and permeabilized with 0.1% Triton X-100 for 5 min at room temperature. The 10% heat-inactivated goat serum in the PBS was used to block non-specific binding. Subsequently, cells were treated with the following antibodies overnight: anti-cleaved caspase 3 and anti-cleaved caspase-7. […] Cell nuclei were stained with Hoechst 33342 and F-actin was stained with Phalloidin-Atto 488. Fluorescent signals were captured using a BD Pathway 855 confocal microscope (Becton Dickinson, Franklin Lakes, NJ, USA). The mean fluorescence intensity was calculated using ImageJ software (National Institutes of Health, Bethesda, Rockville, MD, USA).
Series [14] in a line: MTT cell viability assay, normal cells.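 Further: fibroblasts served as non-cancer comparison line for selectivity versus melanoma cells, MTT reduction read as absorbance at 570 nm after 2 h dye exposure, compounds in ≤0.1% DMSO.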 The following applies: human.
Protocol: (§3) The MTT colorimetric assay was performed as a preliminary evaluation of the cytotoxicity of the selected flavonoids according to the method described and validated by Strawa et al. [21]. Briefly, melanoma cells and fibroblasts were seeded in 96-well microplates at a density of 1 × 10^4 cells per well. Fibroblasts were used as a control cell line in order to assess the selectivity of the compounds. […] Subsequently, the cells were washed with PBS, incubated with MTT solution for 2 h, and lysed with dimethyl sulfoxide (DMSO) supplemented with 1% (v/v) Sorensen’s glycine buffer. The absorbance was measured using a microplate reader (EPOCH 2, BioTek, Winooski, VT, USA) at a wavelength of 570 nm. The compounds were used at a final DMSO concentration of no more than 0.1% (v/v) in each well. The results were generated from at least three independent experiments. […] The IC50 values were calculated with GraphPad Prism 9 software (GraphPad Software, San Diego, CA, USA).
Series [15] can be described thus: in vitro. The following applies: human.
Protocol: as §3
Setting [16] is: human skin fibroblasts (CCD25Sk).
[17] abbreviates: A-375, 24 h, read-out: IC50, cytotoxic activity, MTT test, A375, 24 h.
Setting [18] is: A-375, 48 h, read-out: IC50, cytotoxic activity, MTT test, A375, 48 h.
Where [19] appears, read: A-375, 72 h, read-out: IC50, cytotoxic activity, MTT test, A375, 72 h.
[20] abbreviates: Homo sapiens, C32, 24 h, read-out: IC50, cytotoxic activity, NRU assay, C32, 24 h.
The mark [21] stands for this setting: Homo sapiens, C32, 48 h, read-out: IC50, cytotoxic activity, NRU assay, C32, 48 h.
Setting [22] is: Homo sapiens, C32, 72 h, read-out: IC50, cytotoxic activity, NRU assay, C32, 72 h.

For the molecule `N.N.[Cl][Pt][Cl]` [cPt, cisplatin, reference compound], the IC50 amounted to 47.5 ± 4.9 µM in [1]; 6.8 ± 0.4 µM in series [2] (C32, 24 h); 5.7 ± 0.3 µM in series [2] (C32, 48 h); 4.4 ± 0.4 µM in series [2] (C32, 72 h); 13.8 ± 1.5 µM in [3] (read-out: IC50, cytotoxic activity, NRU assay, C32, 72 h); 7.1 ± 0.9 µM in series [4] (24 h). Besides, the IC50 in [4] (48 h) was 6.1 ± 0.5 µM; in series [4] (72 h), 6.1 ± 0.8 µM; in series [7] (A375, 72 h) it was 9.9 ± 1.1 µM; in series [8] (A375, 24 h), 3.8 ± 0.2 µM; in series [8] (A375, 48 h), 3.9 ± 0.5 µM; in series [8] (A375, 72 h) it was 3.4 ± 0.3 µM. Besides, the “cleavage of initiator caspases, caspase-9 and caspase-8” value in series [5] was “cleavage of both initiator caspases”. In addition, in [5], the “levels of the caspases-3 and -7 zymogens” value is recorded as “decreased levels”. Also, in series [5], the “phosphorylation of the RSK protein” value is recorded as “impaired”. Besides, the “cleaved PARP and caspase-9” value in series [6] was “generated cleaved PARP and caspase-9”. Also, the “phosphorylation of RSK” value in series [6] is listed as “inhibited”.

For the molecule `O=c1c(-c2ccc(O)cc2)coc2cc(O)cc(O)c12` [Compound 37, genistein], the IC50 at 24 h in series [9] and in [14] was > 200 µM each time. For the same molecule, the IC50 at 48 h is 57.8 ± 4 µM in series [9] and 100 to 200 µM in series [14]. The IC50 at 72 h in [9] is 38.6 ± 3.7 µM; in [14] it was 56.8 ± 4.1 µM. In addition, the IC50 in [10] (A-375, 24 h, read-out: IC50, cytotoxic activity, MTT test) was 93.1 ± 5.8 µM; in [10] (A-375, 48 h, read-out: IC50, cytotoxic activity, MTT test) it was 60.9 ± 4.2 µM; in [2] (C32, 48 h) it was 18.5 ± 0.7 µM; in [2] (Homo sapiens, C32, C32, 24 h), 25.4 ± 1.3 µM; in [2] (Homo sapiens, C32, C32, 48 h), 18.5 ± 0.21 µM; in series [2] (Homo sapiens, C32, C32, 72 h) it was 19.1 ± 0.3 µM. Besides, the IC50 in [12] (C32, 24 h) is > 200 µM; in series [12] (C32, 48 h) it was > 200 µM; in [12] (C32, 72 h), 51.1 ± 3.5 µM; in series [3] (Homo sapiens, C32, 24 h, read-out: IC50, cytotoxic activity, NRU assay) it was 100 to 200 µM; in series [3] (Homo sapiens, C32, 48 h, read-out: IC50, cytotoxic activity, NRU assay), 31.5 ± 2.8 µM; in series [3] (Homo sapiens, C32, 72 h, read-out: IC50, cytotoxic activity, NRU assay), 14.4 ± 2.1 µM. For the same molecule, the IC50 in series [4] (Homo sapiens, Skin fibroblast, 24 h) is > 200 µM; in [4] (Homo sapiens, Skin fibroblast, 48 h) it was > 200 µM; in [4] (Homo sapiens, Skin fibroblast, 72 h), > 200 µM; in [7] (Homo sapiens, A-375, 24 h) it was 49.2 ± 3.2 µM; in [7] (Homo sapiens, A-375, 48 h), 32.3 ± 3.5 µM; in series [7] (Homo sapiens, A-375, 72 h), 19.3 ± 2.2 µM. The IC50 came to 28 ± 0.8 µM in series [8] (A375, 48 h); 154 ± 10.8 µM in [8] (Homo sapiens, A-375, A375, 24 h); 28.1 ± 0.87 µM in series [8] (Homo sapiens, A-375, A375, 48 h); 24.2 ± 1.5 µM in [8] (Homo sapiens, A-375, A375, 72 h). In addition, the “level of early apoptotic cells” value in [11] was found to be 38.1 ± 4.2%. Besides, the “level of late apoptotic cells” value in [11] is 8.9 ± 1.9%. The “cleavage of initiator caspases, caspase-9 and caspase-8” value in series [5] is on record as “cleavage of both initiator caspases”. Also, the “levels of the caspases-3 and -7 zymogens” value in series [5] is reported as “decreased levels”. Besides, the “phosphorylation of the RSK protein” value in series [5] is listed as “impaired”. The “cleaved PARP and caspase-9” value in series [6] is “generated cleaved PARP and caspase-9”. Besides, the “phosphorylation of RSK” value in series [6] is listed as “inhibited”. In [13], the caspase-3 expression result was “notably extended”.

`COc1ccc([C@@H]2CC(=O)c3c(O)cc(O)cc3O2)cc1O` [Compound 33, hesperetin]: the IC50 at 24 h in [9] (setting [16]) and in series [15] was > 200 µM each time. Also, the IC50 at 48 h in [9] (setting [16]) and in series [15] was > 200 µM each time. The figures for the IC50 at 72 h in series [9] (setting [16]) and in series [15] were 100 to 200 µM and > 200 µM, respectively. Besides, the IC50 in series [10] (setting [17]) was 100 to 200 µM; in series [10] (setting [18]), 100 to 200 µM; in series [10] (setting [19]) it was 74.5 ± 6.4 µM; in series [12] (C32, 24 h) it was > 200 µM; in [12] (C32, 48 h) it was 100 to 200 µM; in [12] (C32, 72 h), 76.5 ± 6.3 µM. For the same molecule, the IC50 in [3] (setting [20]) was 69 ± 5.1 µM; in series [3] (setting [21]), 58.3 ± 5.6 µM; in series [3] (setting [22]), 53.7 ± 4 µM; in [7] (Homo sapiens, A-375, 24 h), 100 to 200 µM; in series [7] (Homo sapiens, A-375, 48 h), 100 to 200 µM; in series [7] (Homo sapiens, A-375, 72 h), 100 to 200 µM.

Turning to `O=c1cc(-c2ccc(O)c(O)c2)oc2cc(OC3OC(CO)C(O)C(O)C3O)cc(O)c12` (centres unmarked) [Compound 7, luteolin 7-O-glucoside], the IC50 at 24 h in series [9] (setting [16]) and in [15] was > 200 µM throughout. The IC50 at 48 h in series [9] (setting [16]) is 100 to 200 µM; in [15], > 200 µM. Further, the IC50 at 72 h in [9] (setting [16]) is 100 to 200 µM; in series [15] it was > 200 µM. Moreover, the IC50 in series [10] (setting [17]) was > 200 µM; in series [10] (setting [18]), > 200 µM; in [10] (setting [19]) it was 37.1 ± 3 µM; in series [12] (C32, 24 h), > 200 µM; in [12] (C32, 48 h) it was 60.5 ± 4.6 µM; in [12] (C32, 72 h), 40.7 ± 2.9 µM. The IC50 in series [3] (setting [20]) is > 200 µM; in series [3] (setting [21]) it was 29.6 ± 2 µM; in series [3] (setting [22]), 23 ± 2.1 µM; in [7] (Homo sapiens, A-375, 24 h), > 200 µM; in series [7] (Homo sapiens, A-375, 48 h), 56.7 ± 3.8 µM; in series [7] (Homo sapiens, A-375, 72 h), 41.5 ± 3.3 µM.

For the molecule `O=C(O)C1OC(Oc2c(-c3ccc(O)cc3)oc3cc(O)cc(O)c3c2=O)C(O)C(O)C1O` (centres unmarked) [Compound 21, kaempferol 3-O-glucuronide], the IC50 at 24 h in series [9] (setting [16]) and in series [15] was > 200 µM each time. The IC50 at 48 h in series [9] (setting [16]) and in series [15] was > 200 µM throughout. Besides, the IC50 at 72 h in [9] (setting [16]) and in series [15] was > 200 µM throughout. Moreover, the IC50 was > 200 µM in [10] (setting [17]); > 200 µM in series [10] (setting [18]); > 200 µM in series [10] (setting [19]); > 200 µM in series [12] (C32, 24 h); > 200 µM in series [12] (C32, 48 h); > 200 µM in [12] (C32, 72 h). The IC50 is > 200 µM in series [3] (setting [20]); > 200 µM in [3] (setting [21]); > 200 µM in series [3] (setting [22]); > 200 µM in series [7] (Homo sapiens, A-375, 24 h); > 200 µM in series [7] (Homo sapiens, A-375, 48 h); > 200 µM in [7] (Homo sapiens, A-375, 72 h).
